Results reported in PubChem BioAssay (NCI).
Several values for one entry are separate records, joined by “and”; a condition that tells them apart may be missing. Equal entries are not always repeated.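 Method: 48-hour compound exposure of cells in 96-well plates, five concentrations, linear interpolation of endpoints. GI50 = concentration required for 50% inhibition of growth. The concentration for full growth arrest is given as TGI.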

Tests used:
Test in all cases: growth of human tumour cells (NCI), 48 h
ACHN renal = test system: ACHN renal
DMS 273 small cell lung = test system: DMS 273 small cell lung
CAKI-1 renal = test system: CAKI-1 renal
LXFL 529 NSCLC = test system: LXFL 529 NSCLC
K-562 leukemia = test system: K-562 leukemia
SR leukemia = test system: SR leukemia
OVCAR-5 ovarian = test system: OVCAR-5 ovarian
COLO 205 colon = test system: COLO 205 colon
DMS 114 small cell lung = test system: DMS 114 small cell lung
MDA-MB-435 = test system: MDA-MB-435

| Compound | TGI (ACHN renal) [µM] | TGI (DMS 273 small cell lung) [µM] | TGI (CAKI-1 renal) | TGI (LXFL 529 NSCLC) [µM] | TGI (K-562 leukemia) [µM] | TGI (SR leukemia) | TGI (OVCAR-5 ovarian) | TGI (COLO 205 colon) | TGI (DMS 114 small cell lung) [µM] | GI50 (MDA-MB-435) | TGI (MDA-MB-435) | GI50 (ACHN renal) | GI50 (CAKI-1 renal) | GI50 (K-562 leukemia) | GI50 (SR leukemia) | GI50 (OVCAR-5 ovarian) | GI50 (COLO 205 colon) |
| --- | --- | --- | --- | --- | --- | --- | --- | --- | --- | --- | --- | --- | --- | --- | --- | --- | --- |
| O=C1CC(C[C@H](O)C2CCCCC2O)CC(=O)N1Cc1ccccc1 (stereo partly specified) | > 100 | > 100 | > 100 µM | > 100 | > 100 | > 100 µM | > 100 µM | > 100 µM |  |  |  |  |  |  |  |  |  |
| COc1ccc(-c2cc(-c3ccccc3)c(C#N)c(=O)n2C2OC(CO)C(O)C(O)C2O)cc1 (stereo unspecified) | > 100 | > 100 |  | > 100 | > 100 | > 100 µM | > 100 µM | > 100 µM | > 100 |  |  |  |  |  |  |  |  |
| Cc1c(Cl)cccc1N1C(=O)C(Cl)=C(Cl)C1=O | > 100 | > 100 | > 80.9 µM | > 100 | > 31.6 | 79.6 µM | > 100 µM | > 100 µM | > 100 |  |  |  |  |  |  |  |  |
| O=C(NCCCCN=c1cccccc1NCCCCNC(=O)OCc1ccccc1)OCc1ccccc1 | 59.5 | 31.3 | 37.9 µM |  | 33.4 |  | 41.9 µM |  | 29.4 |  |  |  |  |  |  |  |  |
| O=C(Nc1cc(Cl)ccc1Cl)c1cc2cccc(Cl)c2oc1=O | > 100 | > 100 |  |  | > 100 |  |  | > 100 µM | > 100 |  |  |  |  |  |  |  |  |
| COc1ccc(/C(=N\NC(=O)C(N)=O)C(c2ccc(OC)cc2)C2(O)C(=O)Nc3c(Cl)cccc32)cc1 (stereo unspecified) | > 100 |  |  | > 100 |  |  | > 100 µM | > 100 µM | > 100 |  |  |  |  |  |  |  |  |
| COc1cc(CNCCCN2C(=O)c3ccc4c5c(ccc(c35)C2=O)C(=O)N(CCCNCc2cc(OC)c(OC)c(OC)c2)C4=O)cc(OC)c1OC | 3.17 |  | 9.64 µM |  | 2.85 | 1.62 µM | 2.79 µM | 0.352 µM |  | 0.367 µM | 1.11 µM | 0.841 µM | 3.28 µM | 0.309 µM | 0.18 µM | 0.801 µM | 0.139 µM |
| CC(=O)n1c2c(c(=O)n1-c1ccccc1)S(=O)CCC2 (stereo unspecified) | > 100 | > 100 | > 100 µM | > 100 | > 100 | 22.8 µM | > 100 µM | > 100 µM | > 100 |  |  |  |  |  |  |  |  |
| CCCn1c(N)c(C(=O)N/N=C(/C)c2cc3cccc(OC)c3o2)sc1=S | > 100 |  | > 100 µM |  | > 100 | > 100 µM | > 100 µM | > 100 µM |  | 56.6 µM | > 100 µM | 46.8 µM | 0.0161 µM | 18.3 µM | 8.66 µM | > 100 µM | 56.7 µM |
| CCOC(=O)NC(=O)c1cn(CCOC(=O)NCCCCCCNC(=O)OCCn2cc(C(=O)NC(=O)OCC)c(=O)[nH]c2=O)c(=O)[nH]c1=O | > 100 | > 100 | > 100 µM | > 100 | > 100 |  |  | > 100 µM | > 100 |  |  |  |  |  |  |  |  |
| CCOC(=O)C(C)(C)Oc1ccc2c(C)c(-c3ccc(Cl)cc3)c(=O)oc2c1 | > 100 | > 100 |  | > 100 | > 100 | > 100 µM |  | > 100 µM | > 100 |  |  |  |  |  |  |  |  |
| COC1[C@@H](OC(C)=O)[C@@H](NC(=O)C(Cl)(Cl)Cl)C(I)[C@@H](N2C(=O)c3ccccc3C2=O)[C@H]1OC (stereo partly specified) | > 100 | > 100 |  | > 100 | > 100 | > 100 µM | > 100 µM | > 100 µM | > 100 |  |  |  |  |  |  |  |  |
| Nc1nc(N)c(N=Nc2ccc([As](=O)(O)O)cc2)c(=O)[nH]1 | > 100 |  | > 100 µM |  | > 100 | > 100 µM | > 100 µM | > 100 µM |  |  | > 100 µM |  |  |  |  |  |  |
| CCCCCCNC(=O)c1nc(-c2ccccc2)oc1Cc1ccc(OP(=O)(O)O)cc1 | 29.5 |  | 33.6 µM |  | 64 | 50.2 µM | 28.5 µM | 31.2 µM |  | 16.4 µM | 30.5 µM | 15.5 µM | 15.8 µM | 22.6 µM | 21.5 µM | 14.6 µM | 17 µM |
| Cc1ccc(/C=C/c2c(C(=O)/C=C/c3ccc(C(F)(F)F)cc3)c(C)nc3ccccc23)cc1 | 2.7 |  | 2.32 µM |  | > 100 | 4.97 µM | 4.25 µM | 5.29 µM |  | 1.49 µM | 2.89 µM | 1.4 µM | 1.11 µM | 1.55 µM | 0.451 µM | 1.84 µM | 2.21 µM |
| c1ccc(SC2CCSc3ccccc3C2Sc2ccccc2)cc1 (stereo unspecified) | > 100 | > 100 | 85 µM | > 100 | > 100 |  |  |  |  |  |  |  |  |  |  |  |  |
| COc1ccccc1N1CCN(CCCn2c(=O)c3c(OC)nc(C)cc3c(=O)n2-c2ccccc2)CC1 | > 100 |  | > 100 µM |  | > 100 | > 100 µM | > 100 µM | > 100 µM |  | > 100 µM | > 100 µM | > 100 µM | > 100 µM | > 100 µM | > 100 µM | > 100 µM | > 100 µM |
| O=C(c1c(F)ccc(NS(=O)(=O)N2CC[C@@H](F)C2)c1F)c1c[nH]c2ncc(-c3cnc(C4CC4)nc3)cc12 | > 65.9 |  | > 10 µM and 29.8 µM |  | > 100 | > 10 µM and 79.6 µM | > 10 µM and 46.4 µM | > 7.6 µM and 12.2 µM |  | 0.0174 µM and 0.0272 µM | > 10 µM and 23.1 µM | 4.91 µM and 4.34 µM | 3.22 µM and 3.29 µM | 3.68 µM and 3.12 µM | 5.35 µM and 3.93 µM | > 6.42 µM and 9.04 µM | 0.00482 µM and < 0.01 µM |
| CC(=O)OC12c3ccccc3-c3ccccc3C1C1C(=O)N(C)C(=O)C12Cl (stereo unspecified) | > 10 |  | > 10 µM |  | > 10 | > 10 µM | > 10 µM | > 10 µM |  |  | > 10 µM |  |  |  |  |  |  |
| COC(=O)[C@]1(C)CCCC2(C)C1CC[C@H]1C=C(C)[C@H]3CCC12C3 (stereo partly specified) | > 100 |  | > 100 µM | > 100 | > 100 | > 100 µM | > 100 µM | > 100 µM | > 100 |  |  |  |  |  |  |  |  |
| C[C@H]1Oc2cc(cnc2N)-c2c(nn(C)c2C#N)CN(C)C(=O)c2ccc(F)cc21 | > 100 |  | > 100 µM |  | > 100 | > 100 µM | > 100 µM | 51.4 µM |  | 48.6 µM | > 100 µM | 22.8 µM | 18.3 µM | > 100 µM |  | 5.24 µM | 5.24 µM |
